In experiment [1] the test system is A549. Briefly: Anticancer activity against human A549 cells assessed as inhibition of cell proliferation by SRB assay. It counts as functional, cell-based.
The subject of experiment [2] is A549. Briefly: Induction of apoptosis in human A549 cells assessed as late apoptotic cells at 5 uM incubated for 24 hrs AnnexinV/ propidium iodide staining based flow cytometry (Rvb= 0.54 %). The experiment is classed as functional.
In experiment [3] the test system is A549. Briefly: Anticancer activity against human A549 cells assessed as inhibition rate at 10 uM by SRB assay relative to control. It counts as functional. In general terms: The SRB assay estimates cell density from bound dye.
For experiment [4], the system named is HeLa. Briefly: Anticancer activity against human HeLa cells assessed as inhibition of cell proliferation by SRB assay. The experiment is classed as functional, cell-based.
For experiment [5], the system named is A549. Description: Induction of apoptosis in human A549 cells assessed as late apoptotic cells at 2.5 uM incubated for 24 hrs AnnexinV/ propidium iodide staining based flow cytometry (Rvb= 0.54 %). It counts as functional. Background: A flow cytometer gives signals particle by particle.
Experiment [6] concerns A549. Description: Induction of apoptosis in human A549 cells assessed as viable cells at 2.5 uM incubated for 24 hrs AnnexinV/ propidium iodide staining based flow cytometry (Rvb= 98.5 %). It counts as functional. Particulars: read-out: Activity.
Experiment [7] deals with A549. Briefly: Induction of apoptosis in human A549 cells assessed as viable cells at 5 uM incubated for 24 hrs AnnexinV/ propidium iodide staining based flow cytometry (Rvb= 98.5 %). The experiment is classed as functional. To be noted: read-out: Activity.
The subject of experiment [8] is A549. Briefly: Induction of apoptosis in human A549 cells assessed as early apoptotic cells at 5 uM incubated for 24 hrs AnnexinV/ propidium iodide staining based flow cytometry (Rvb= 0.79 %). The experiment is classed as functional.
Experiment [9] deals with A549. Briefly: Induction of apoptosis in human A549 cells assessed as necrotic cells at 5 uM incubated for 24 hrs AnnexinV/ propidium iodide staining based flow cytometry (Rvb= 0.16 %). It counts as functional.
The test system of experiment [10] is A549. Briefly: Induction of apoptosis in human A549 cells assessed as necrotic cells at 2.5 uM incubated for 24 hrs AnnexinV/ propidium iodide staining based flow cytometry (Rvb= 0.16 %). It counts as functional.
For experiment [11], the system named is HeLa. Briefly: Anticancer activity against human Hela cells assessed as inhibition rate at 10 uM by SRB assay relative to control. It counts as functional.
In experiment [12] the test system is A549. Description: Anticancer activity against human A549 cells assessed as inhibition rate at 30 uM by SRB assay relative to control. It counts as functional.
Experiment [13] relates to A549. Description: Induction of apoptosis in human A549 cells assessed as early apoptotic cells at 2.5 uM incubated for 24 hrs AnnexinV/ propidium iodide staining based flow cytometry (Rvb= 0.79 %). The experiment is classed as functional.
The subject of experiment [14] is HeLa. Briefly: Anticancer activity against human Hela cells assessed as inhibition rate at 30 uM by SRB assay relative to control. It counts as functional.

This is an account of results in ChEMBL document CHEMBL5321258, “Anticancer evaluation of benzofuran derivatives linked to dipiperazine moiety” (Bioorg Med Chem Lett, 2023).

The structures appear in SMILES notation. pIC50: −log10 of the molar value.

With `CCN(CC)c1ccc2cc(C(O)c3ccc(OCCN4CCN(C(=O)CN5CCN(C(=O)c6ccc(F)cc6)CC5)CC4)cc3)oc2c1` (stereo not drawn), the negative logarithm of the IC50 (pIC50) was 6.37 with A549 [1] and < 4.52 with HeLa [4]. Further, the Activity in the experiment on A549 [2] came out at 39%; in the experiment with A549 [5] it was 18.9%; in the experiment on A549 [8] it was 28.5%; with A549 [9] it was 9.18%; with A549 [10], 4.26%; in the experiment on A549 [13], 5.88%. In addition, the results for the inhibition at 10 µM with A549 [3] and with HeLa [11] were 80.1% and 20.4%, respectively. For the same compound, the viability at 2.5 µM in the experiment with A549 [6] is 71%. Moreover, the viability at 5 µM with A549 [7] was found to be 23.4%. The inhibition at 30 µM is 83.9% with A549 [12] and 40.6% in the experiment with HeLa [14].

Turning to `CCN(CC)c1ccc2cc(C(O)c3ccc(OCCN4CCN(C(=O)CN5CCN(C(=O)c6ccc(C(F)(F)F)cc6)CC5)CC4)cc3)oc2c1` (stereo not drawn), the pIC50 is 6.92 in the experiment on A549 [1] and < 4.52 with HeLa [4]. For the same compound, the Activity was found to be 3.49% in the experiment with A549 [2]; 1.73% in the experiment with A549 [5]; 1.95% in the experiment with A549 [8]; 0.55% in the experiment on A549 [9]; 0.25% in the experiment with A549 [10]; 1.07% in the experiment on A549 [13]. Besides, the inhibition at 10 µM in the experiment with A549 [3] was 92.5%; with HeLa [11] it was 11.3%. The viability at 2.5 µM in the experiment on A549 [6] was 97%. For the same compound, the viability at 5 µM with A549 [7] came to 94%. In addition, the inhibition at 30 µM with A549 [12] was 95.2%; in the experiment with HeLa [14], 19.8%.

One may read the pIC50 as −log10 of the IC50, conventionally taken in molar units. A word on the inhibition: it is the percentage by which the read-out fell short of the control.
